Entries after “also recorded” stand apart in the source; their conditions may differ. Positions of bridges follow the written chain, without caps; N, C: chain ends. Non-standard residues stand in square brackets, D forms with d. Residues, ends and D or L forms follow the SMILES beside them. hArg = N=C(N)NCCCC[C@H](N)C(=O)O; Mpa = O=C(O)CCS
Legend:
[1] = Photodegradation upon exposure to ultraviolet light by HPLC analysis; conditions: for relative stabilities: assuming the dosage codes were equivalent
[2] = more sensitive to the αPTT; cited from earlier work

| Compound | relative stabilities ([1]; UV282) | photodegradation profile, in words ([1]; UV 282 nm) | HPLC peak relative to unexposed control ([1]; UV 282 nm, exposure A) | HPLC peak relative to unexposed control ([1]; UV 282 nm, remainder of the exposures (after exposure A)) | relative stabilities ([1]; UV308) | photodegradation, in words ([1]; UV 308 nm) | effect on PT and αPTT [2] | HPLC peak relative to unexposed control ([1]; UV 282 nm, exposure B) | HPLC peak relative to unexposed control ([1]; UV 282 nm, exposure C) | HPLC peak relative to unexposed control ([1]; UV 282 nm, exposure D) | HPLC peak relative to unexposed control ([1]; UV 282 nm, exposure F) | HPLC peak relative to unexposed control ([1]; UV 308 nm, exposure A) | HPLC peak relative to unexposed control ([1]; UV 308 nm, exposure B) | HPLC peak relative to unexposed control ([1]; UV 308 nm, exposure C) |
| --- | --- | --- | --- | --- | --- | --- | --- | --- | --- | --- | --- | --- | --- | --- |
| N=C(N)NCCCC[C@@H]1NC(=O)CCSSC[C@@H](C(N)=O)NC(=O)[C@@H]2CCCN2C(=O)[C@H](Cc2c[nH]c3ccccc23)NC(=O)[C@H](CC(=O)O)NC(=O)CNC1=O [Eptifibatide] ([Mpa][hArg]GDWPC-NH2; disulfide 1-7) | Argatroban>Tirofiban>>Eptifibatide | faster photodegradation profile than the other compounds tested | 47.0% | below the LLOD | Tirofiban>>Argatroban>>Eptifibatide | substantial photodegradation, but to a lesser extent than at UV282 | – | – | – | – | – | – | – | – |
| COc1ccc2ccc(S(=O)(=O)N(C)[C@H]3CCN(Cc4csc(C(=N)N)c4)C3=O)cc2c1 [RPR-120844] | – | – | – | – | – | – | prolongs the PT and αPTT in a concentration-dependent manner | – | – | – | – | – | – | – |
| CCCCS(=O)(=O)N[C@@H](Cc1ccc(OCCCCC2CCNCC2)cc1)C(=O)O [Tirofiban] | – | – | 81.2% | – | – | – | – | 59.9% | 37.7% | 15.4% | below the LLOQ; also recorded: indeterminate | 81.2% | 76.9% | 73.0% |

Source: US8715920B2, “Composition for preserving platelets during photosensitization” (Biovec Transfusion, LLC, priority 2010, dated 2014)
